Data from a melting point compilation (Tetko et al.; mined from patent text by program, amines drawn as free bases though some values may be those of a salt).
Residues, ends and D or L forms follow the SMILES beside them.

| melting point [°C] | Structure (SMILES) |
| --- | --- |
| 164 to 165 | CCCCCCOc1ccc(-n2cc(C(=O)O)cn2)cc1C#N |
| 176 | CSc1nccn1CC(=O)O |
| 76 to 78 | CC(CO)N1CC(COc2cccc(Cl)c2)OC1=O (stereo not drawn) |
| 132 to 133 | O=C(NCCO)c1cccc(-c2cccc3oc(Cc4cccc(C(F)(F)F)c4)nc23)c1 |
| 98 to 100 | COC(=O)COCc1cc2cc(Cl)ccc2n1S(=O)(=O)c1ccccc1 |
| 157 | O=c1cc(C(F)(F)F)nc[nH]1 |
| 242 | Cc1ccc(NC(=O)c2ccc(C(=O)Nc3ccccc3N)s2)cc1Nc1nc(-c2cccnc2)cs1 |
| 89 to 91 | NS(=O)(=O)c1ccc(F)c(F)c1 |
| 42 to 44 | COCCOCCOCCOCCOc1ccc(N)cc1 |
| 194 to 196 | O=C(CCl)c1ccc(OCc2nnn[nH]2)cc1 |
| 99 to 100 | O=C1CCC(CCC(=O)OCc2ccccc2Cl)N1 (stereo not drawn) |
| 256 to 257 | O=C(c1ccncc1)c1cc2c(c(C(=O)O)c1)OC(c1ccccc1)(c1ccccc1)O2 |
| 240 to 245 | O=C(O)C1=CCCN(Cc2ccc(Cl)c(Cl)c2)C1 |
| 191 to 194 | COc1c(Cl)ccc(-c2cc(N)c(Cl)c(C(=O)NOCCC#N)n2)c1F |
| 137 | CCCCc1ccc(CN(CCCCCCC(=O)O)S(C)(=O)=O)cc1 |
| 134 to 136 | COc1ccc(Sc2ccccc2/C=C/C(=O)NCCCCO)cc1 |
| 132 | CNc1c(CC(C)O)cc([N+](=O)[O-])cc1[N+](=O)[O-] (stereo not drawn) |
| 187 to 189 | O=C1NC(=O)C(Cc2ccccc2)N1 (stereo not drawn) |
| 45 to 51 | CCN(CC)S(=O)(=O)c1ccccc1N |
| 293 to 294 | O=C(O)c1ccc(-c2nc(-c3ccc(C(F)(F)F)cc3)no2)cc1 |
| 137 | COCOc1ccc(-c2cc(S(C)=O)nn2-c2ccc(OC)cc2)cc1 (stereo not drawn) |
| 155 to 158 | CCC(CC)NC(=O)C[C@@H](C(=O)NC[C@@H](O)[C@@H](N)Cc1ccccc1)C(C)(C)C |
| 268 | CC(C)c1nccn1-c1nc(Cl)nc2nc[nH]c12 |
| 264 to 267 | O=C1c2cccc(F)c2-n2c1nc1ccccc1c2=O |

| melting point [°C] | Structure (SMILES) |
| --- | --- |
| 191 to 194 | O=S1(=O)N=CN(C2CC2)c2ccccc21 |
| 203 to 205 | Cc1nc(-n2cc(-c3ccc(F)cc3)nn2)sc1C(=O)NCc1ccccc1 |
| 117 to 118 | CCOC(=O)/C=C/c1nc(COc2ccc(C=O)cc2OC)c(C)o1 |
| 165 to 169 | OCC#Cc1cc(Cl)cc2nc(-c3ccccc3Cl)oc12 |
| 101 | CP(C)(=O)c1ccc(C(=O)O)cc1 |
| 68 to 69 | COC(=O)c1ccc(Cl)nc1OC |
| 240 | CC1(C)C(=O)Nc2cc3[nH]c(-c4ccc(O)cc4)nc3cc21 |
| 50 to 55 | CC(C)C[C@H](NC(=O)OC(C)(C)C)C(=O)NCCCC(c1ccc(F)cc1)c1ccc(F)cc1 |
| 241 | O=C1Nc2ccc(Cl)cc2C1(Cl)c1cccc2c1OCO2 (stereo not drawn) |
| 260 to 263 | NNC(=O)c1ncn2c1C1CCN1C(=O)c1sccc1-2 (stereo not drawn) |
| 192 to 193 | CC1=NC(=Cc2ccc(C#N)cc2)C(=O)O1 |
| 174 to 177 | CCOC(=O)C(=O)Nc1nccs1 |
| 86 to 87 | Cc1oc(-c2ccco2)nc1COc1ccc(Cn2cc(CCC(=O)O)c(-c3ccccc3)c2)cc1 |
| 61 to 63 | COC(=O)c1cc(CCNC(=O)C(F)(F)F)ccc1OC |
| 178 to 182 | Clc1ccc(C=Cc2nc[nH]n2)cc1 |
| 215 to 220 | Cc1ccc2c(c1)C=Cc1cc(C(C)C)ccc1C2c1cn(-c2ccnc(NCC(=O)Nc3nc(CC(=O)O)cs3)n2)c(=O)[nH]c1=O (stereo not drawn) |
| 156 | Cc1cc(C=C2SC(=O)NC2=O)ccc1-c1cccc(CN(C)C(=O)OC(C)(C)C)c1 |
| 123 | CCCCCCCNC(=O)Nc1ccccc1C(=O)NC1CCN(Cc2c(C(C)C)nc(C(C)C)c(COC)c2-c2ccc(F)cc2)CC1 |
| 53 to 54 | CCCCCCCCCCCCCCOc1ccccc1O |
| 255 to 258 | CC(=NC12CC3CC(CC(C3)C1)C2)NC12CC3CC(CC(C3)C1)C2 |
| 172 | COc1ccc(CN(C)CCc2ccc(NC(=O)c3cccc4c(=O)c5cccc(OC)c5[nH]c34)cc2)cc1OC |
| 159 to 160 | CCOC(=O)c1c(SCc2ccc(OC)cc2)c(CC)c2cc(Cl)ccn2c1=O |
| 170 to 171 | Cc1scc2c1N(C(=O)NCCN1CCC(CCCN3CCCCC3)CC1)c1ccccc1NC2=O |
| 245 | Cc1cn(-c2nccc3ccccc23)cc1C(=O)O |

| melting point [°C] | Structure (SMILES) |
| --- | --- |
| 75 to 76 | CCCCCCCCn1c(C2=CC(=O)c3ccccc3C2=O)ccc1C1=CC(=O)c2ccccc2C1=O |
| 155 to 159 | O=C(O)c1ccc(OCCCOc2ccccc2)cc1C(=O)O |
| 236 to 238 | O=C(Nc1ccc([N+](=O)[O-])cc1)N1CCN(c2nc(-c3ccccc3)nc3ccccc23)CC1 |
| 158 to 160 | CN1CCCC(C(=O)N2CCC(c3[nH]nc4c3C(=O)c3c(NC(=O)NN5CCOCC5)cccc3-4)CC2)C1 (stereo not drawn) |
| 140 | COc1cc(CCCN2CCc3cc(OC)c(OC)cc3C2)ccc1NC(=O)c1cccc2c(=O)c3c(OC)ccc(OC)c3[nH]c12 |
| 107 to 111 | O=C1N(c2ccccc2)c2ccccc2C1(Cc1ccccn1)Cc1ccccn1 |
| 154 to 156 | COc1ccc(P(=O)(c2ccccc2)c2ccccc2)cc1OC |
| 117 to 120 | CCNNc1nc(C)c(C(=O)OCC)c(Cl)c1[N+](=O)[O-] |
| 149 to 151 | S=C(Nc1cc(Cl)cc(Cl)c1)Nc1cc(OCc2cccc3ccccc23)ccc1Br |
| 103 to 105 | CCCc1ccccc1OS(=O)(=O)c1ccc(N2CCN(C)C2=O)cc1 |
| 108 to 109 | Cc1c(C(C)F)nc[nH]c1=O (stereo not drawn) |
| 135 to 136 | COc1ccc(C(=O)CCCCCl)cc1S(N)(=O)=O |
| 161 to 162 | COc1cc(N)c(Cl)cc1C(=O)NCC1CCN(CCS(=O)(=O)CCc2ccccc2)CC1 |
| 97.5 | CCCCCC1OCc2cc(C(=O)Oc3ccc(CCC)cc3)ccc2O1 (stereo not drawn) |
| 267 to 268 | COc1cc(OC)cc(C(=O)CC(=O)c2ccc(O)cc2O)c1 |
| 155 to 157 | Cc1c(C(=O)c2ccccc2Cl)c(NC(=O)CI)cn1C |
| 84 to 87 | COC(=O)CN1CCN(C(=O)OC(C)(C)C)C(Cc2ccc(OCc3ccccc3)cc2)C1=O (stereo not drawn) |
| 177 to 178 | O=C(O)c1ccc(NCc2ccc(Cl)s2)cc1 |
| 59.5 to 62.5 | O=C1CCCSC1C(=O)c1ccc([N+](=O)[O-])cc1Cl (stereo not drawn) |
| 155 to 156 | Cc1cccc2c1nc(-c1c(F)cccc1F)n2Cc1c(F)c(F)c(F)c(F)c1F |
| 229 to 230 | C=CC(=O)Nc1cccc2c(=O)c(C)c(-c3ccccc3)oc12 |
| 123 to 124 | CCCCOc1cc(OCCCc2cn(-c3ccc(C(F)(F)F)cn3)nc2OCC)ccc1CCC(=O)O |
| 108 to 110 | CC(C)OC(=O)Cc1nc(-c2ccc(F)cc2)oc1-c1ccsc1 |
| 166 to 169 | Nc1ccccc1NC(=O)c1cc2cc(OCCN3CCOCC3)ccc2s1 |

| melting point [°C] | Structure (SMILES) |
| --- | --- |
| 238 | CC(C)C(=O)Nc1ccc(C(=O)Nc2ccccc2[N+](=O)[O-])cc1 |
| 227 to 229 | COCOc1ccc(-c2ccc3c(c2)C=C(C(=O)Nc2ccc(CN(C)C4CCOCC4)cc2)CCS3(=O)=O)cc1 |
| 151 to 154 | CC(C(=O)O)c1ccc2c(-c3ccc(F)cc3)noc2c1 (stereo not drawn) |
| 94 to 96 | Nc1ncc(Br)cc1Cl |
| 139 to 140 | CCc1nc(/C=C/c2cn(-c3ccccc3)nc2OCc2ccc(OCc3nc(-c4cccc(-c5noc(=O)[nH]5)c4)oc3C)c(OC)c2)cs1 |
| 220 | CC(=O)c1cc2sc(C)c(N(C)S(=O)(=O)c3cccs3)c2[nH]1 |
| 138 to 140 | CC(Oc1ccc(Oc2ccc(C(F)(F)F)cc2)cc1)C(=O)O (stereo not drawn) |
| 114 to 116 | CCOC(=O)Cc1c(C)n(Cc2cccc(O)c2)c2ccc(OC)cc12 |
| 324 | Cc1cc(-c2cc(C(F)(F)F)n3ncc(-c4nc(-c5ccc(S(N)(=O)=O)s5)no4)c3n2)ccc1C(F)(F)F |
| 164 to 167 | COc1ccc(C=C2C(=O)N(C3=NCCS3)c3ccccc32)cc1 |
| 157 to 159 | O=c1[nH]ccn1-c1ccc(OCC(F)(F)C(F)F)cc1 |
| 189 to 192 | CCC(C)(C)NC(Nc1cc(Cl)cc(Cl)c1)=C(C#N)S(=O)(=O)c1ccc(Cl)cc1 |
| 122 to 123 | CCCOc1nc(C(F)(F)F)cc(=O)n1-c1cc(O)c(Cl)cc1F |
| 58 | Nc1ccc(F)cc1-c1ccc(Cl)c(Cl)c1 |
| 184 to 186 | CC(C)OC(=Cn1ccnc1)c1ccc(Cl)cc1Cl |
| 191 to 192 | COc1cc(COc2cc(/C=C/C(=O)O)n(-c3ccccc3)n2)ccc1OCc1nc(-c2ccco2)oc1C |
| 198 to 200 | CCOC(=O)COc1ccc(N)c(C)c1 |
| 206 to 216 | Cc1c(Cl)cc(C(=O)C=CC(=O)O)cc1Cl |
| 187 to 191 | CN(O)C(=N)c1nn(-c2c(Cl)cc(C(F)(F)F)cc2Cl)c(N)c1S(=O)C(F)(F)F (stereo not drawn) |
| 155 to 160 | CN(C)CCCN1N=C2C(=Cc3ccccc3)CS(=O)CC2C1c1ccccc1 (stereo not drawn) |
| 180 to 181 | CN1CCN(C(=O)c2c(N3CCN(C(=O)c4ccco4)CC3)n(-c3ccccc3)c3ccccc23)CC1 |
| 157 to 158 | CCCCCNC(=S)NC(=Nc1ccccc1)c1ccccc1 |
| 140 to 142 | Cc1nnc(-c2cc3cccc(OC[C@@H](O)CN4CCC(c5ccc6ccccc6c5)CC4)c3o2)o1 |

| Structure (SMILES) | melting point [°C] |
| --- | --- |
| CCn1c(=O)n(O)c(=O)c2cc(F)c(N3CCNCC3)cc21 | 206 to 208 |
| CC(C)CC(NC(=O)C(Cc1ccccc1)NC(=O)CNC(=O)C(C)NC(=O)C(N)Cc1ccc(O)cc1)C(=O)NC(CCCNC(=N)N)C(=O)O (stereo not drawn) (H-YAGFLR-OH; configuration not given here) | 173 to 176 |
| O=C(Cc1ccc(OCc2ccccc2)cc1OCc1ccccc1)N1CCN(Cc2ccccc2)CC1 | 104 to 106 |
